# Assay results published in publication doi:10.1101/2022.09.09.507317v1 (biorxiv, 2022).
# Tests used:
# Assay in all cases: actin-activated ATPase, PK/LDH-coupled NADH absorbance
# rabbit skeletal myosin = type: biochemical, Oryctolagus cuniculus; conditions: 2 mM ATP, 3 mM MgCl2, 5 mM KCl, pH 7.4, 2% DMSO, 100 nM myosin, n = 6
# [1] = target: chicken smooth muscle myosin (Gallus gallus, UniProt P10587); type: biochemical; conditions: 2 mM ATP, 3 mM MgCl2, 5 mM KCl, pH 7.4, 2% DMSO, 300 nM myosin, n = 2
# Sequence of chicken smooth muscle myosin (P10587 2-1979): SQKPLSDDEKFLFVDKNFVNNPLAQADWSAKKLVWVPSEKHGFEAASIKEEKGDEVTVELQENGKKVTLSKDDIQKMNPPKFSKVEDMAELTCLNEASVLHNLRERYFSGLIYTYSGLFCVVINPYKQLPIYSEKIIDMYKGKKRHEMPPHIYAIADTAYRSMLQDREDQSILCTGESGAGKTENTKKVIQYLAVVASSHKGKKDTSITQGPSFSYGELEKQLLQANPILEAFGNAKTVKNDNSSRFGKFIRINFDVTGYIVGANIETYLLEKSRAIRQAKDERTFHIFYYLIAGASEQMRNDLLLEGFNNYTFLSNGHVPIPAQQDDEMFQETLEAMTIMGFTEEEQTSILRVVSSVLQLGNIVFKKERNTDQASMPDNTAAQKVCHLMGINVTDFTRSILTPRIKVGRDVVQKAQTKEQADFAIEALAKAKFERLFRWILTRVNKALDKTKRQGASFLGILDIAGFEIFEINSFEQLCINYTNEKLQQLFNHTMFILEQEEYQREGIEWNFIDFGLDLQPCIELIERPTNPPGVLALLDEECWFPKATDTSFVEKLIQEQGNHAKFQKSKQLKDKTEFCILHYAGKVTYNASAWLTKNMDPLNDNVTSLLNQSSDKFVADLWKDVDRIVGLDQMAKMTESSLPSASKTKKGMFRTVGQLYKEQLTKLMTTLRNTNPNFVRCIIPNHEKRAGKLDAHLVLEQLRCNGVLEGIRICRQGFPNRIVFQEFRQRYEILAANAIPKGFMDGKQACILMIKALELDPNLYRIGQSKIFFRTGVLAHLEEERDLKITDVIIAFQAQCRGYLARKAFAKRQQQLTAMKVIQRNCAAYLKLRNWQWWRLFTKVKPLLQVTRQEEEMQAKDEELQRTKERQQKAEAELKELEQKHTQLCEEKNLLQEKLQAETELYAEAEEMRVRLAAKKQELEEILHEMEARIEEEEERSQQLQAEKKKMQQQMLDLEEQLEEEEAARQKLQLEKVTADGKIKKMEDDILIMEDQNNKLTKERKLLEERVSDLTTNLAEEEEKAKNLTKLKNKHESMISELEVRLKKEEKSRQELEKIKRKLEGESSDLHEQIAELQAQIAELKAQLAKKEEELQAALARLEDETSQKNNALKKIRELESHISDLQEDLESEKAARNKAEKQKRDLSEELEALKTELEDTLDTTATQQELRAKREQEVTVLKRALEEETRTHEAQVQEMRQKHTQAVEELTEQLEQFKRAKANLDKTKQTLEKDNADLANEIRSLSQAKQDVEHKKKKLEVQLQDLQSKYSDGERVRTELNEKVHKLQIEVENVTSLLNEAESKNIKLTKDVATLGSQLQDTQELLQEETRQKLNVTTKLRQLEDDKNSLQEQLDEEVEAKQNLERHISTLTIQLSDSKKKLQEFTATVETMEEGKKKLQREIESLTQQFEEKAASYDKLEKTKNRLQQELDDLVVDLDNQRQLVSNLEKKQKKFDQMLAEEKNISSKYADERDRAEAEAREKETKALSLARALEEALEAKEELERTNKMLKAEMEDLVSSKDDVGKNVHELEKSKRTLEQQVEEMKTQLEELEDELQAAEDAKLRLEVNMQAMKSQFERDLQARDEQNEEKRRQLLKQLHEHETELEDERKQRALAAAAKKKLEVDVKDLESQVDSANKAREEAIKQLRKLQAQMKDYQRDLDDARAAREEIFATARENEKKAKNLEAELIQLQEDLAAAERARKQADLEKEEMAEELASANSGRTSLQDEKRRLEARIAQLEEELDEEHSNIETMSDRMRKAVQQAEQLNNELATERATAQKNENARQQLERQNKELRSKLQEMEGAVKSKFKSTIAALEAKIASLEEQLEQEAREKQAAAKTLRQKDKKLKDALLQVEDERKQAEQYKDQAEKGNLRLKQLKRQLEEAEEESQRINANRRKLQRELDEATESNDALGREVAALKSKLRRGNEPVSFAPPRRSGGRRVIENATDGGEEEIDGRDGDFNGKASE
# Sequence of chicken smooth muscle myosin (P02607 2-151 partner): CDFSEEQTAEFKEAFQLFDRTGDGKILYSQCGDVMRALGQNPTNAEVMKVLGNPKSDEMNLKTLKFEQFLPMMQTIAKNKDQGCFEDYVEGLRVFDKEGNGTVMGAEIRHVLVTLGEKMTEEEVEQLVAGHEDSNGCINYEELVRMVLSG
# Sequence of chicken smooth muscle myosin (P02612 2-172 partner): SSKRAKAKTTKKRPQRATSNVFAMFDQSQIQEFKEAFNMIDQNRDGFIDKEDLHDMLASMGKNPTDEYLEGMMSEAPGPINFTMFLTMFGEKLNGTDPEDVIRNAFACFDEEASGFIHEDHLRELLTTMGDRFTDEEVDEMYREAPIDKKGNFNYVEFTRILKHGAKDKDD
# bovine cardiac myosin = bovine cardiac myosin (Bos taurus, UniProt Q9BE39); type: biochemical; conditions: 2 mM ATP, 3 mM MgCl2, 5 mM KCl, pH 7.4, 2% DMSO, 200 nM myosin, n = 3
# Sequence of bovine cardiac myosin (Q9BE39 whole entry): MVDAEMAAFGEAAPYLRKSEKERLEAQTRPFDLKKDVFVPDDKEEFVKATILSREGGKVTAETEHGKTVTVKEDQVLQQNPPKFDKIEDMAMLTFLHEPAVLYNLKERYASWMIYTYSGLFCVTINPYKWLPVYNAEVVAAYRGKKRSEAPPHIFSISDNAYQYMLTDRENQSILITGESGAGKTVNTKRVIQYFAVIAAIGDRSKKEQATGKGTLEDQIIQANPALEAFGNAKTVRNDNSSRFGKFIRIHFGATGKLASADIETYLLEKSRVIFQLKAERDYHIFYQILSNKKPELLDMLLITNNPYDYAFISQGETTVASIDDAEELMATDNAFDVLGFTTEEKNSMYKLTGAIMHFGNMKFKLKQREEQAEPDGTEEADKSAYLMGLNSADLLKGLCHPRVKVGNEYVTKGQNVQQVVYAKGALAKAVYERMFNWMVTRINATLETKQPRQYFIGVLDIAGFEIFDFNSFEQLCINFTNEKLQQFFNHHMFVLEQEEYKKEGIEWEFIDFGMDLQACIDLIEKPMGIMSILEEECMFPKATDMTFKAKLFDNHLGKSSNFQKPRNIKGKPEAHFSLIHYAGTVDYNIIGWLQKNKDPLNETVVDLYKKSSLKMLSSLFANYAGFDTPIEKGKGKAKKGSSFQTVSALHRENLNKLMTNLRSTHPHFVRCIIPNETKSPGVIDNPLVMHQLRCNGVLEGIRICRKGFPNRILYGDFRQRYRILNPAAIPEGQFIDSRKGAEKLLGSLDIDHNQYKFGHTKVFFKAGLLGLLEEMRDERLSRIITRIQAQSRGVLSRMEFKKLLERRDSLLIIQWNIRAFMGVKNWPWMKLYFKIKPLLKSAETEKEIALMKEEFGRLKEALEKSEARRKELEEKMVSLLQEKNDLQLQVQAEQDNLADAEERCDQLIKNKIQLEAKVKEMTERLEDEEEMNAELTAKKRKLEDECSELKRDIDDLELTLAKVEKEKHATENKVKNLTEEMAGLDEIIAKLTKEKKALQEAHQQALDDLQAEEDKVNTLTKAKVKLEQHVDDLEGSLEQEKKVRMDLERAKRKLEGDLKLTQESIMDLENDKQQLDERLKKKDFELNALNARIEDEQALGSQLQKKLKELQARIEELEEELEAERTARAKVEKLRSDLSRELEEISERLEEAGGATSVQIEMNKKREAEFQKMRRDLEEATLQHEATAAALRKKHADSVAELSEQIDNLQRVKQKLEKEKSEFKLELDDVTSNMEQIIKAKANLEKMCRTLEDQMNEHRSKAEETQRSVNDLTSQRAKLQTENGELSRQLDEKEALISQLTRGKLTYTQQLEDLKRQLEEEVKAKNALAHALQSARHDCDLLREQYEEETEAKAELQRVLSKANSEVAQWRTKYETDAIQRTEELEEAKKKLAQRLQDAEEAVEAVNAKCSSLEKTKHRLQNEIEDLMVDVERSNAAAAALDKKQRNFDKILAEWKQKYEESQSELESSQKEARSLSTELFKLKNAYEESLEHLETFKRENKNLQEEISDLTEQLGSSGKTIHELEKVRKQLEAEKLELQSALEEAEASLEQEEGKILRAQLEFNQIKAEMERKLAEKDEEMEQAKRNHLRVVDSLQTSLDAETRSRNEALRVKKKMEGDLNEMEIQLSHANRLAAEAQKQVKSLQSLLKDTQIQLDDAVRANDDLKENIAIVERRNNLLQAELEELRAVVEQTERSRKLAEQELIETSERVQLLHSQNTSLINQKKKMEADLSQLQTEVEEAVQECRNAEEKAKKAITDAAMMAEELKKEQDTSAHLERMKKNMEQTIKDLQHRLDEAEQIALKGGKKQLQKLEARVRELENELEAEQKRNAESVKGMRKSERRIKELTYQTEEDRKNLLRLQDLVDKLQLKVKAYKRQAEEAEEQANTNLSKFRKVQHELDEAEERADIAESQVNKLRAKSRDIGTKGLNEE
# Sequence of bovine cardiac myosin (P85100 2-199 partner): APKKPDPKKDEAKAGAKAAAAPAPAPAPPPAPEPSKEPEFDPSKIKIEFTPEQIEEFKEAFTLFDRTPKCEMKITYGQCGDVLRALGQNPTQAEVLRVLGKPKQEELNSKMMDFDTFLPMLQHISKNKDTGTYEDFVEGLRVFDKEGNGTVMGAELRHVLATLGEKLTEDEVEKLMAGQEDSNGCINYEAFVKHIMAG
# Sequence of bovine cardiac myosin (Q3SZE5 2-166 partner): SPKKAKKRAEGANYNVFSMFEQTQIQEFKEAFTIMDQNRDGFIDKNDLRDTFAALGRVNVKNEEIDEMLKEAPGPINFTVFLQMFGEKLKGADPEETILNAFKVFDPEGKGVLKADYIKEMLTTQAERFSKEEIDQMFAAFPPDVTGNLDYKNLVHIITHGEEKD
# PfMyoA = target: T1, PfMyoA (Plasmodium falciparum, UniProt Q8IDR3); type: biochemical; conditions: 2 mM ATP, bovine cardiac actin, 3 mM MgCl2, 5 mM KCl, pH 7.4, 2% DMSO; n = 5
# T1 sequence (Q8IDR3 1-818): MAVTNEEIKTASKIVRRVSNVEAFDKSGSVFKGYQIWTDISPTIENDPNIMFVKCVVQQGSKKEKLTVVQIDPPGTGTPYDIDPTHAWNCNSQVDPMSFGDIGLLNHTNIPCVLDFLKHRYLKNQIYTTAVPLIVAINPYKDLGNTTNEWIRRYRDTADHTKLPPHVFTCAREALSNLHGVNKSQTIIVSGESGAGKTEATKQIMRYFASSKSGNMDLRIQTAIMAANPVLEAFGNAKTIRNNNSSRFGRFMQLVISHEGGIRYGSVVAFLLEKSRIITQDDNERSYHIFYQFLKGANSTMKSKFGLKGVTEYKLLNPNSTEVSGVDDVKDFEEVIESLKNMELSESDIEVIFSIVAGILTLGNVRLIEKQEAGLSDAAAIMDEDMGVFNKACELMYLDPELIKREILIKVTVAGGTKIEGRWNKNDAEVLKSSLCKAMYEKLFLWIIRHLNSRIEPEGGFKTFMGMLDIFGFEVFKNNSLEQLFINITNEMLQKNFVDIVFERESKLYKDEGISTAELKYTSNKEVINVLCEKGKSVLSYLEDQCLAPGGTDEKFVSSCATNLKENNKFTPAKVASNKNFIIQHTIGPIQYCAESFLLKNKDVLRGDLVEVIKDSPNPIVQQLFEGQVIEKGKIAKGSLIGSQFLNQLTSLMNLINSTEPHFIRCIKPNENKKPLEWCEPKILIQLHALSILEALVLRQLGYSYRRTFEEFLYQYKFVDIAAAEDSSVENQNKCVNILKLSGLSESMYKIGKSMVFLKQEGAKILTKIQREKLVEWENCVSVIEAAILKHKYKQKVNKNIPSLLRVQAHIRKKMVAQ
# T1 sequence (Q8IJM4 1-134 partner): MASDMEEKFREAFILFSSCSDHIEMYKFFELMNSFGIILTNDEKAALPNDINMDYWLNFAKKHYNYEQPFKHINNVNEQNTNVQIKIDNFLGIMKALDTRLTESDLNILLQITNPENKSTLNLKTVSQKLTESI
# T1 sequence (Q8I4W8 1-204 partner): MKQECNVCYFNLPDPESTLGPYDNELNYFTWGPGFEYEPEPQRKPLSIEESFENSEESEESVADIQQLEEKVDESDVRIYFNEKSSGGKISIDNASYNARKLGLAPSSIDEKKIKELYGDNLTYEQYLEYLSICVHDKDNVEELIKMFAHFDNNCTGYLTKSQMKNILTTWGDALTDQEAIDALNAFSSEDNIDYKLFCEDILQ
IC50 (rabbit skeletal myosin) [µM],IC50 [1] [µM],IC50 (bovine cardiac myosin) [µM],IC50 (PfMyoA) [µM],Molecule
1 ± 0.4,> 50,10 ± 6.4,,KNX-115
,,,0.4 ± 0.1,COc1ccc(C2(NCc3c[nH]nc3-c3cccs3)CC2)cc1 [KNX-002]
